Consider 1 compound from PMC8419995, “In vitro and in vivo efficacy of thiacloprid against Echinococcus multilocularis” (Parasites & Vectors, 2021).

In assay [1] the test system is E. multilocularis metacestodes. Nature of the assay: In vivo treatment of mice experimentally infected with E. multilocularis metacestodes. Further details: species or system Echinococcus multilocularis. Conditions: for Wet weight of the metacestodes: infected BALB/c mice, untreated 6.49 ± 1.18 g. The protocol:
(§1) In vitro-grown metacestode vesicles were pressed through a 500 µm mesh and washed three times with sterile PBS. The parasite tissue was then taken up in an equal volume of sterile PBS. Each mouse was intraperitoneally injected with 200 μl suspension. Seven mice were injected with 200 μl PBS as the control group. Twenty-eight infected mice were randomly distributed into four groups (7 mice/group): the untreated group was not administered any drug; the ABZ group was treated with ABZ orally (100 mg/kg/day); and the Thia15 group and Thia30 group received thiacloprid orally (15 mg/kg/day and 30 mg/kg/day). Treatments of mice started 2 weeks post-infection, and treatments were administered daily for 6 weeks. After 6 weeks of treatment, whole blood via the orbital sinus was collected from mice and the animals were euthanized by CO2. Blood samples were incubated at 37 °C for 1 h and centrifuged at 3500 rpm for 10 min at 4 °C. The serum was harvested and stored at –20 °C for IL-2, IL-4, IL-10 and IgE detection. All metacestode tissues were collected, and the total wet weight of metacestodes per mice was determined. Furthermore, the content of cytokines in microcyst fluid was detected by enzyme-linked immunosorbent assay (ELISA). Several metacestode tissue specimens were processed for transmission electron microscopy (TEM) and histopathological experiments.
Tissues from experimental animals were washed in PBS and fixed in 4% paraformaldehyde at room temperature for […]. On the next day, they were dehydrated, embedded, and sliced into 5-μm sections. After dewaxing and dehydrating, sections were stained with hematoxylin for 2–5 min, and re-stained with eosin for 15 s. They were sealed with neutral gum and observed under a BX51 microscope (Olympus, Tokyo, Japan).
A Periodic Acid Schiff Stain Kit (Solarbio, Beijing, China) was used to show the PAS-positive laminated layer characteristic of E. multilocularis metacestodes. The section (5 μm) was dewaxed in xylene and rehydrated in 100%, 95%, 80%, and 75% alcohol baths. Staining was then carried out according to the kit instructions.

The test system of assay [2] is collagen I and III, MMP1, MMP3, MMP9, MMP13. In words: Collagen and MMP expression in the host-lesion microenvironment (TEM, Sirius red, qPCR, western blot). Format: in vivo. Conditions: infected BALB/c mice, 6 weeks oral treatment. Here is the method: The metacestodes were fixed with 4% paraformaldehyde and embedded in paraffin to make sections with a thickness of […]. The sections were dewaxed with water, stained with Picrosirius red for 10 min, rinsed and dehydrated with anhydrous ethanol, and sealed with neutral balsam after the xylene was transparent. Each section of 400× visual field image was randomly collected. The ratio of the area of all images collected to the area of the visual field was measured using the ImageJ analysis system, and the percentage of collagen fibre was calculated.
The variations in the microstructure of the protoscoleces or metacestodes were observed under an electron microscope. […] They were washed twice in PBS and then fixed for 3 h with 2.5% glutaraldehyde (pH = 7.2); next, they underwent 2 h post-fixation in 2% OsO4 (SPI-CHEM, West Chester, PA, USA). Subsequently, the samples were washed in double-distilled water and treated with 1% uranyl acetate for 25 min. After the samples were washed again in double-distilled water, dehydration was conducted in ethanol at continuous gradients (30–50–70–80–90–95–100%) over a period of 10 min. For SEM analysis, the dehydrated samples were dipped into hexamethyldisiloxane and then air-dried in a fume hood. The sample was observed under a Hitachi SU8100 scanning electron microscope (Tokyo, Japan) after gold spraying. For TEM analysis, the dehydrated samples passed through a dehydrating agent, and an epoxy resin (SPI-CHEM) permeated and polymerized at 60 °C overnight. A 50-nm ultra-thin section was prepared and then loaded on a 300-mesh copper grid. It was stained with uranyl acetate and lead citrate (SPI-CHEM). The sample was observed under a Hitachi HT7700 transmission electron microscope. To reduce the bias, electron microscopy was observed by professionals in the case of an unknown group.
Total RNA was extracted with TRIzol Reagent (Thermo Fisher Scientific, Waltham, MA, USA) according to the manufacturer’s instructions. The purity and concentrations of RNA were quantified using NanoDrop 2000 absorbance measurements at 260/280 nm. Total RNA was converted into cDNA sequences using the FastKing gDNA Dispelling RT SuperMix Kit (TIANGEN Biotech), and RT-qPCR was performed using the RealUniversal Color PreMix Kit (TIANGEN Biotech) on an ABI QuantStudio 5 system (Applied Biosystems, Waltham, MA, USA). The specific primers are shown in Additional file 4: Table S1. The PCR cycling conditions were as follows: pre-denaturation at 95 °C for 15 min followed by 40 cycles at 95 °C for 10 s and 60 °C for 34 s. The relative mRNA expression levels were quantified using the 2^−ΔΔCT method. RPS18 served as an internal control.
A total protein extraction kit (Solarbio) was used to extract cell or tissue total protein. The protein concentration was determined by the protein quantitative assay kit (Thermo Fisher Scientific). Then, electrophoresis was performed with 20–50 μg of protein sample. The protein was separated by sodium dodecyl sulfate polyacrylamide gel electrophoresis (SDS-PAGE) and transferred to a 0.22 μm PVDF membrane (Merck Millipore, Darmstadt, Germany). The PVDF membrane was blocked with 5% of nonfat powdered milk in Tris-buffered saline Tween 20 (TBST) for 1 h at room temperature. The membrane incubation with primary antibodies was performed at 4 °C overnight. The antibody information is listed in Additional file 5: Table S2. The membrane was washed with TBST and incubated with HRP-labeled secondary antibodies (1:5000, Abclonal, Wuhan, China) for 1 h at room temperature. Blotted membranes were visualized using enhanced chemiluminescence reagents (Thermo Fisher Scientific). Protein expression was depicted as the intensity of each protein relative to that of β-actin using ImageJ software.

The subject of assay [3] is T lymphocyte subsets in metacestodes and spleen. Nature of the assay: T lymphocyte subset analysis and spleen index in infected mice. Format: in vivo. Conditions: infected BALB/c mice; 6 weeks oral treatment; flow cytometry. Here is the method:
as §1, with “After 6 weeks of treatment, whole blood via the orbital sinus was collected from mice and the animals were euthanized by CO2. Blood samples were incubated at 37 °C for 1 h and centrifuged at 3500 rpm for 10 min at 4 °C. The serum was harvested and stored at –20 °C for IL-2, IL-4, IL-10 and IgE detection.” left out, “Several metacestode tissue specimens were processed for transmission electron microscopy (TEM) and histopathological experiments.” left out
The spleens of mice were removed and then weighed to calculate the spleen index. […] The lymphocytes were incubated with FITC-conjugated anti-CD3 (BioLegend, San Diego, CA, USA), PE-conjugated anti-CD4 (BioLegend), and APC-conjugated anti-CD8 (BioLegend) antibodies, and then analyzed by flow cytometry using a NovoCyte flow cytometer (ACEA/Agilent, Santa Clara, CA, USA).
(In flow cytometry, cells or beads pass a laser one at a time.)

With `N#C/N=C1\SCCN1Cc1ccc(Cl)nc1` [thiacloprid], the “PAS staining of laminated layer of metacestodes from treated mice” value in assay [1] (6 weeks oral treatment) was “only a few laminated layers were observed”. Besides, the “HE staining of metacestodes from treated mice” value in assay [1] (6 weeks oral treatment, thiacloprid 15 or 30 mg/kg/day, ABZ 100 mg/kg/day) was “Considerable vacuoles”. Further, the “Wet weight of the metacestodes” value in assay [1] (thiacloprid 15 mg/kg/day orally, 6 weeks (Thia15 group)) was found to be 1.63 ± 0.62 g. Besides, the “Wet weight of the metacestodes” value in assay [1] (thiacloprid 30 mg/kg/day orally, 6 weeks (Thia30 group)) is given as 1.63 ± 0.61 g. Besides, in assay [2], the “Collagen fiber deposition in the host-lesion microenvironment (TEM)” value is “can promote”. Also, the “mRNA expression of MMP1, MMP3, MMP9 and MMP13 in the microenvironment” value in assay [2] (qPCR) was “significantly inhibited”. Further, in assay [2] (qPCR, western blot), the “mRNA and protein expression levels of collagen I and III in the host-lesion microenvironment” value is given as “increased”. The “Protein expression levels of MMP1, MMP3, MMP9 and MMP13” value in assay [2] (western blot) is on record as “decreased”. Further, in assay [3], the “CD4+ T lymphocytes in the metacestodes and spleen compared with the untreated group” value is reported as “increased”; the “CD8+ T lymphocytes in the metacestodes and spleen compared with the untreated group” value is “decreased”.
